# Measurements as given in US6123916A, “Therapeutic use of somatostatin peptides” (priority 1990, dated 2000).
# Tested on: GH-release (serum GH-level)
# Assay: Depression of serum GH-levels in male rats 1 hour after s.c. administration (radio-immuno-assay)
# Format: in vivo, rat
# Conditions: blood taken 1 hour after administration
# Description: This test is carried out employing male rats. The test-substance is administered at varying, logarithmically staggered doses employing at least 5 rats per dose. 1 hour after s.c. administration of the test substance blood is taken. The determination of the blood serum GH-level is effected by radio-immuno-assay.
compound,measurement,value
"C[C@H](N)C(=O)NCC(=O)N[C@H]1CSSC[C@@H](C(=O)O)NC(=O)[C@H](CO)NC(=O)[C@H]([C@@H](C)O)NC(=O)[C@H](Cc2ccccc2)NC(=O)[C@H]([C@@H](C)O)NC(=O)[C@H](CCCCN)NC(=O)[C@H](Cc2c[nH]c3ccccc23)NC(=O)[C@H](Cc2ccccc2)NC(=O)[C@H](Cc2ccccc2)NC(=O)[C@H](CC(N)=O)NC(=O)[C@H](CCCCN)NC1=O [natural somatostatin, somatostatin]",ID50 (amount of compound required to lower the GH content by 50% compared with untreated control animals),0.95 mg/kg
